Experimental data from patent US20250314644A1, “METHODS COMPRISING DETECTION OF ADP-HEPTOSE” (CHILDREN'S HOSPITAL MEDICAL CENTER, priority 2023, published 2025).

Test system: Dnmt3a^KO; Alpk1^KO cells
Assay: RNA-sequencing of HSPCs treated in vitro with ADP-heptose or H2O for 90 minutes
Type: cell-based, mouse
Conditions: vs H2O

Nc1ncnc2c1ncn2[C@@H]1O[C@H](COP(=O)(O)OP(=O)(O)O[C@@H]2O[C@H]([C@H](O)CO)[C@@H](O)[C@H](O)[C@@H]2O)[C@@H](O)[C@H]1O [ADP-heptose, ADP-D-glycero-β-D-manno-heptose]
logFC 7fp418: −0.871
logFC 1110019D14Rik: −0.854
logFC 1700037C18Rik: 0.829
logFC 2810408A11Rik: −0.812
logFC 4930451G09Rik: 0.8284
logFC 4933407K13Rik: −0.692
logFC 5031425F14Rik: 0.715
logFC 9330182L06Rik: −1.241
logFC A430105I19Rik: 1.602
logFC A930013F10Rik: 0.5873
logFC AI607873: 0.7333
logFC Abcb4: 0.7782
logFC Ambp: 0.8742
logFC Aqp1: 0.6005
logFC Arg1: 1.214
logFC Azin2: 0.7217
logFC BC100530: −0.982
logFC Bambi-ps1: −0.651
logFC Caprin2: −0.787
logFC Ces1d: −0.735
logFC Cgref1: 1.029
logFC Ctsf: −0.836
logFC Ctsk: −0.954
logFC D630023F18Rik: −0.819
logFC Epha7: −0.73
logFC Erdr1: −1.542
logFC Foxd4: −0.677
logFC Gas6: −0.682
logFC Gbp9: 1.092
logFC Gm4285: −1.087
logFC Gm5069: −0.82
logFC Gm15694: 0.9249
logFC Gm16023: 0.8494
logFC Gm21057: −1.133
logFC Hist1h1e: −0.799
logFC Hist1h2be: −1.019
logFC Hist1h4h: −1.162
logFC Hmga1: −0.621
logFC Irf7: 0.6473
logFC Isg15: 0.6427
logFC Kif1a: −0.954
logFC Kif9: 1.387
logFC Lars2: −1.194
logFC Lrrc51: 1.737
logFC Ltc4s: 0.978
logFC Ly6i: 0.764
logFC Nefh: 0.6222
logFC Nr1h3: −0.655
logFC Oas1g: 0.6168
logFC Oas2: 0.8787
logFC Oas3: 0.6718
logFC Oasl1: 0.7357
logFC Oasl2: 0.9665
logFC Paqr3: −0.758
logFC Pcsk9: −1.15
logFC Rhcg: 1.146
logFC Rn45s: −1.533
logFC Rsad2: 0.9464
logFC Rtp4: 1.172
logFC Sdhaf3: −0.856
logFC Sfxn4: −1.009
logFC Slfn5: 1.078
logFC Stac3: 0.7901
logFC Stbd1: 0.9881
logFC Stxbp3-ps: −0.814
logFC Syp: 0.7928
logFC Tagln: 1.205
logFC Tchh: 1.26
logFC Tle6: −0.734
logFC Usp18: 0.7247
logFC Xaf1: 0.6469
logFC Zbp1: 0.6712
logFC Zdhhc2: 0.7176
logFC Zdhhc15: 0.9343
logFC Zfp54: −0.829
